Data on 13 compounds can be found in patent publication US8008494B2, “Soluble amide and ester pyrazinoylguanidine sodium channel blockers” (Parion Sciences, Inc., priority 2004, dated 2011).

Data set [1] is described as follows: Solubility of compounds in sodium chloride solution. In kind it is physicochemical. The conditions noted are these: saline or isotonic, thermodynamic from solid. On the procedure: Compound solubility was measured in water, 0.12 or 0.9% sodium chloride solution at ambient temperature for up to 10 days. Using a UV/Visable Spectrophotometer and applying Beer's Law with the calculated extinction coeffecient of amiloride (18.6 mM, absorbance values at 362 nm taken from D. Mazzo 1986) the free base concentration in solution was calculated at specified time points. All samples were stored for the duration of the experiment in a single/closure system consisting of glass vials with a stopper-top closure. The vials were maintained at ambient temperature, in the dark, and in the upright position. Compound stability was measured using reverse phase high performance liquid chromatography on the final filtered pulled sample (day 10).
Table 2 gives the solubility in saline of selected amide bis methane sulfonic acid salts and compares them to the mono addition methane sulfonic acid salt of PSA 9714.

The target in data set [2] is T1, Epithelial Sodium Channel (ENaC) (Canis lupus familiaris, UniProt A0A8I3MKE6+A0A8I3Q679+Q95165).
T1 construct: endogenous in cells; host or cells: primary canine bronchial epithelial cells from freshly excised airways, cultured at air-liquid interface and mounted in Ussing chambers
T1 sequence (A0A8I3Q679 1-649): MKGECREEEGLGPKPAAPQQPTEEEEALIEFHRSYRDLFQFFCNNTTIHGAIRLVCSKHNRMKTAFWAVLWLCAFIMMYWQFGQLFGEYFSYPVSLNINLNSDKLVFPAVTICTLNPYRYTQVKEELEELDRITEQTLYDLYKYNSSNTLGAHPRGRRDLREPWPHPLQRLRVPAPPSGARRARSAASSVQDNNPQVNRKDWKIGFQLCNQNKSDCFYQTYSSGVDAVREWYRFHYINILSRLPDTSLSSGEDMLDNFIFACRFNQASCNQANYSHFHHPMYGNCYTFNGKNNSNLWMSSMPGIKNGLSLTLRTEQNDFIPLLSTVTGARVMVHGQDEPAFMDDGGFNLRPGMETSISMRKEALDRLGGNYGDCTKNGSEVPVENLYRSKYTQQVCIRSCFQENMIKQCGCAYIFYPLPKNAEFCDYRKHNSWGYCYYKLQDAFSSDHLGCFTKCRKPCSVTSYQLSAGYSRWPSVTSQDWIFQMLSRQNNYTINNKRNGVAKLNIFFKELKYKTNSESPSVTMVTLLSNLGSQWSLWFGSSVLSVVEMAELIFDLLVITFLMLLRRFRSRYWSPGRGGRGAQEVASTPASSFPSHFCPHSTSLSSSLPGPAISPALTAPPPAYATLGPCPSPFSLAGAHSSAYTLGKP
T1 sequence (Q95165 1-641): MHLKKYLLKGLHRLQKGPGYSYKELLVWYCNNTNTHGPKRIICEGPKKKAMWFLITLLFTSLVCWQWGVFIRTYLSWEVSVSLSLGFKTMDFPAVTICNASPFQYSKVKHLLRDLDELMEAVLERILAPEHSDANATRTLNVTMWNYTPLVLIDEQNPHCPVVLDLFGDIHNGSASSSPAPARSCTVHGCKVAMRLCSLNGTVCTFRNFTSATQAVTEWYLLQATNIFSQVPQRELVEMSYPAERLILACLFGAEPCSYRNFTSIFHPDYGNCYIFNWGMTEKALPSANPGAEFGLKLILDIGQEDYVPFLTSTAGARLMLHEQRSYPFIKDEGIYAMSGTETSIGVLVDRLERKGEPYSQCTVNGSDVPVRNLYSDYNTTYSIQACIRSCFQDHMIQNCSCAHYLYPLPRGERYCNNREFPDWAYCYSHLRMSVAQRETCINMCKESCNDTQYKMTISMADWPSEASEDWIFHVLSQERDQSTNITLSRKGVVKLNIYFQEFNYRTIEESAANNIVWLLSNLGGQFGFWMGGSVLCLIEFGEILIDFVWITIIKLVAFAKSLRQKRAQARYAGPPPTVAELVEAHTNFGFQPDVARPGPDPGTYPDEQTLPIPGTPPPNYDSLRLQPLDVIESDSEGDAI
T1 sequence (A0A8I3MKE6 1-646): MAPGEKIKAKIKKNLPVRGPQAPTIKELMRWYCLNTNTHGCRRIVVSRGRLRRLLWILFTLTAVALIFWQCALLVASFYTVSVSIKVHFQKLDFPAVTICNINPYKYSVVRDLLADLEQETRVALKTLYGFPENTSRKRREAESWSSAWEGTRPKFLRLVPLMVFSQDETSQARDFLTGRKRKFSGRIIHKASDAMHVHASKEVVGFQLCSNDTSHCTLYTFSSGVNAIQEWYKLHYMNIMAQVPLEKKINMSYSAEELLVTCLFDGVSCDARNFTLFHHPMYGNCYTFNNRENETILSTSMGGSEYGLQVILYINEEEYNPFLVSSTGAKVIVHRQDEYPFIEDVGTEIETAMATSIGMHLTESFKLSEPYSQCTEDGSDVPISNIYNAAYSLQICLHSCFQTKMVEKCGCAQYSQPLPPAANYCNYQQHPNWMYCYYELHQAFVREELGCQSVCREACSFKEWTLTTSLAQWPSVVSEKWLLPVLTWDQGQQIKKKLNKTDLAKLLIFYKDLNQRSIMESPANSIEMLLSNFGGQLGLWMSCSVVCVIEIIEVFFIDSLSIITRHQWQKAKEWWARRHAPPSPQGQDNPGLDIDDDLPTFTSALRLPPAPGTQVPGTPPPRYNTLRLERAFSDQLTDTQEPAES
Put plainly: Sodium channel (ENaC) blocking activity, short circuit current in airway epithelial monolayers in Ussing chambers. It counts as cell-based. The conditions noted are these: canine bronchial epithelium; for Fold Amiloride (PSA4022 = 100): relative potency, PSA4022 = 100, using IC50 from PSA4022 in same run. On the procedure:
One assay used to assess mechanism of action and/or potency of the compounds of the present invention involves the determination of lumenal drug inhibition of airway epithelial sodium currents measured under short circuit current (ISC) using airway epithelial monolayers mounted in Ussing chambers. Cells obtained from freshly excised human, dog or sheep airways are seeded onto porous 0.4 micron Snapwell™ Inserts (CoStar), cultured at air-liquid interface (ALI) conditions in hormonally defined media, and assayed for sodium transport activity (ISC in μA/cm^2) while bathed in Krebs Bicarbonate Ringer (KBR) in Ussing chambers. All test drug additions are to the lumenal bath with half-log dose addition protocols (from 1×10^−11 M to 3×10^−5 M), and the cumulative change in ISC (inhibition) recorded. All drugs are prepared in dimethyl sulfoxide as stock solutions at a concentration of 1×10^−2 M and stored at −20° C. Six preparations are typically run in parallel; one preparation per run incorporates a positive control. All data from the voltage clamps are collected via a computer interface and analyzed off-line.
Dose-effect relationships for all compounds are considered and analyzed by the Prism 3.0 program. EC50 values, maximal effective concentrations are calculated and compared to positive controls.
Utilizing the tests set forth above, Table 3 summaries the ENaC blocking ability of some of the amides of this invention when assayed in canine bronchial epithelium.
Utilizing the tests set forth above, Table 4 summaries the ENaC blocking ability of some of the Esters of this invention when assayed in canine bronchial epithelium.

The mark [3] stands for this setting: 0.12% sodium chloride solution, 0.12% NaCl solution, methanesulfonic acid salts, ambient temperature, read-out: S1 = Solubility in 0.12% NaCl Solution.
[4] abbreviates: 0.9% sodium chloride solution (normal saline), 0.9% NaCl solution (normal saline), methanesulfonic acid salts, ambient temperature, read-out: S2 = Solubility in 0.9% NaCl Solution (normal Saline).
The mark [5] stands for this setting: Table 3, read-out: IC50 (nM), Epithelial Sodium Channel Blocking Activity of Selected Amides.
The mark [6] stands for this setting: Table 4, read-out: IC50 (nM), Epithelial Sodium Channel Blocking Activity of Selected Esters.

Structures can show the parent of a compound that is named as a salt. Where two headings read alike, the source gives them in different places. Where only a bound is given, the exact number is not on record here.

In the case of `CN(C)CCCNC(=O)COc1ccc(CCCCNC(=N)NC(=O)c2nc(Cl)c(N)nc2N)cc1` (as salt: methanesulfonate) [PSA 24304, 2-(4-{4-[N′-(3,5-diamino-6-chloropyrazine-2-carbonyl)guanidino]-butyl}phenoxy)-N-(3-dimethylaminopropyl)acetamide dimethanesulfonate], the melting point (usually the temperature of the solid-liquid transition) was in the range of 187 to 190 °C.
As for `CS(=O)(=O)O.CS(=O)(=O)O.N=C(NCCCCc1ccc(C(=O)N2CCNCC2)cc1)NC(=O)c1nc(Cl)c(N)nc1N` [PSA23607, N-(3,5-Diamino-6-chloropyrazine-2-carbonyl)-N′-{4-[4-(piperazine-1-carbonyl)phenyl]butyl}guanidine bis-methanesulfonate], the solubility – broadly, how much of the substance goes into solution per volume – in data set [1] (0.12% sodium chloride solution, 0.12% saline solution, read-out: solubility in 0.12% saline solution) is more than 5000 µg/mL.
For `N=C(NCCCCc1ccc(OCC(N)=O)cc1)NC(=O)c1nc(Cl)c(N)nc1N` [PSA 9714, reference compound], the “Fold Amiloride (PSA4022 = 100)” value in data set [2] (Table 3) is given as 62. Besides, the solubility in data set [1] (setting [3]) and in data set [1] (setting [4]) was less than 100 µg/mL throughout.
Compound `N=C(NCCCCc1ccc(OCC(=O)N2CCNCC2)cc1)NC(=O)c1nc(Cl)c(N)nc1N` [PSA 19913] gave a melting point of 72 to 74 °C. Further, in data set [2] (setting [5]), the IC50 (as a rule, the point on the concentration scale where inhibition reaches its midpoint) turned out to be 9 ± 1 nM. Besides, in data set [2] (Table 3), the “Fold Amiloride (PSA4022 = 100)” value worked out at 98. Also, the solubility in data set [1] (setting [3]) was more than 5000 µg/mL.
In turn, `CN(C)CCNC(=O)COc1ccc(CCCCNC(=N)NC(=O)c2nc(Cl)c(N)nc2N)cc1` [PSA 23185a] showed a melting point of 97 to 99 °C. Also, in data set [2] (setting [5]), the half-inhibitory concentration (IC50) turned out to be 14 ± 9 nM. The “Fold Amiloride (PSA4022 = 100)” value in data set [2] (Table 3) is on record as 59. In addition, the solubility in data set [1] (setting [3]) was more than 5000 µg/mL.
`N=C(NCCCCc1ccc(OCC(=O)NCCN(CCO)CCO)cc1)NC(=O)c1nc(Cl)c(N)nc1N` [PSA 23450] had a melting point of 87 to 89 °C. Moreover, the IC50 in data set [2] (setting [5]) is 18 nM. In addition, in data set [2] (Table 3), the “Fold Amiloride (PSA4022 = 100)” value was 38. In addition, in data set [1] (setting [3]), the solubility was more than 5000 µg/mL. In addition, the solubility in data set [1] (setting [4]) was more than 5000 µg/mL.
Regarding `N=C(NCCCCc1ccc(OCC(=O)NCCN)cc1)NC(=O)c1nc(Cl)c(N)nc1N` [PSA 23778], the melting point is 105 to 107 °C (dec.). In addition, the “Fold Amiloride (PSA4022 = 100)” value in data set [2] (Table 3) is listed as 146. Further, the solubility in data set [1] (setting [3]) was more than 5000 µg/mL.
For the compound `CN(C)CCCNC(=O)COc1ccc(CCCCNC(=N)NC(=O)c2nc(Cl)c(N)nc2N)cc1` [PSA 24304, 2-(4-{4-[N′-(3,5-diamino-6-chloropyrazine-2-carbonyl)guanidino]-butyl}phenoxy)-N-(3-dimethylaminopropyl)acetamide dimethanesulfonate], the IC50 in data set [2] (setting [5]) came to 4 ± 2 nM. In addition, in data set [2] (Table 3), the “Fold Amiloride (PSA4022 = 100)” value was determined as 173. Also, the solubility in data set [1] (setting [3]) was more than 5000 µg/mL.
For `CN(C)CCCCNC(=O)COc1ccc(CCCCNC(=N)NC(=O)c2nc(Cl)c(N)nc2N)cc1` [PSA 24305], the melting point lay in the range of 188 to 190 °C. Moreover, in data set [2] (setting [5]), the IC50 is 6 ± 5 nM. The “Fold Amiloride (PSA4022 = 100)” value in data set [2] (Table 3) was determined as 152. For the same compound, the solubility in data set [1] (setting [3]) was more than 5000 µg/mL. Further, the solubility in data set [1] (setting [4]) was more than 5000 µg/mL.
As for `CC(C)(C)OC(=O)NCCOC(=O)COc1ccc(CCCCNC(N)=NC(=O)c2nc(Cl)c(N)nc2N)cc1` [PSA 25309, (4-{4-[N′-(3,5-Diamino-6-chloropyrazine-2-carbonyl)guanidino]butyl}phenoxy)acetic acid 2-tert-butoxycarbonylaminoethyl ester], the melting point was in the range of 80 to 82 °C. Also, in data set [2] (setting [6]), the IC50 turned out to be 4 nM. Further, the “Fold Amiloride (PSA4022 = 100)” value in data set [2] (Table 4) turned out to be 119.
For `N=C(NCCCCc1ccc(OCC(=O)OCCN2CCCCC2)cc1)NC(=O)c1nc(Cl)c(N)nc1N` [PSA 25453, (4-{4-[N′-(3,5-diamino-6-chloropyrazine-2-carbonyl)guanidino]butyl}-phenoxy)acetic acid 2-piperidin-1-yl-ethyl ester], the half-inhibitory concentration (IC50) in data set [2] (setting [6]) worked out at 19 ± 16 nM. For the same compound, the “Fold Amiloride (PSA4022 = 100)” value in data set [2] (Table 4) is on record as 38.
`N=C(NCCCCc1ccc(OCC(=O)OCCN)cc1)NC(=O)c1nc(Cl)c(N)nc1N` [PSA 25454, (4-{4-[N′-(3,5-diamino-6-chloropyrazine-2-carbonyl)guanidino]butyl}-phenoxy)acetic acid 2-aminoethyl ester dihydrochloride]: the IC50 in data set [2] (setting [6]) was 12 ± 2 nM. Further, the “Fold Amiloride (PSA4022 = 100)” value in data set [2] (Table 4) is 44.
On to `N=C(NCCCCc1ccc(OCC(=O)OCC2CCNCC2)cc1)NC(=O)c1nc(Cl)c(N)nc1N` [PSA 25720, (4-{4-[N′-(3,5-diamino-6-chloropyrazine-2-carbonyl)guanidino]butyl}-phenoxy)acetic acid piperidin-4-yl-methyl ester dihydrochloride], for which the concentration for half-maximal inhibition (IC50) in data set [2] (setting [6]) turned out to be 3 nM. Moreover, the “Fold Amiloride (PSA4022 = 100)” value in data set [2] (Table 4) came to 189.
